Tested on: glucosyltransferase
Assay: Inhibition of water-insoluble glucan formation by crude glucosyltransferase (14C-sucrose, scintillation counting)
Type: biochemical, Streptococcus mutans OMZ 176
Details: Water-insoluble glucan formation vs control, 60 minutes at 37°C, pH 6.8
Experimental: Crude glucosyltransferase was refined from Streptococcus mutans OMZ 176 according to the method described by Mukasa and Slads in Infect. Immun., 8, 555 (1973) and 9, 419 (1974).
The above GTF, labeled sucrose and the tea polyphenol compounds were mixed together to the following final concentrations, and was regulated with a 50 mM phosphate buffer (with pH 6.8). GTF: 0.34 mg protein/ml 0.1 mM (¹⁴C) sucrose: 0.1 »Ci/»l Present agent: 1 to 10 mg/ml or 1 to 10 mM.
Twenty (20) »l of the mixture solution were subjected to a reaction for 60 minutes at 37°C. After the completion of the reaction, 5 »l of the reaction mixture and 5 »l of supernatant obtained by centrifugation of the reaction mixture at 5,500 x g for 3 minutes were applied to a filter paper respectively, and then developed with a developing solution of butanol-pyridine-water (6:4:3), followed by counting with a scintillation counter. The amount of water-insoluble glucan was found by a difference between the measurements of the reaction mixture and the supernatant. The GTF inhibiting ability is expressed in terms of the rate of inhibiting the formation of water-insoluble glucan with respect to a control to which the tea polyphenol compounds were not added.

Molecule	Inhibition (%) (sample concentration 1.0 mM)	Inhibition (%) (sample concentration 10.0 mM)
Oc1cc(O)c2c(c1)O[C@H](c1cc(O)c(O)c(O)c1)[C@@H](O)C2 [(+)-Gallocatechin]	15	51
(-)-Epicatechin	5	42
(-)-Gallocatechin	20	30
O=c1c(O)cc([C@H]2Oc3cc(O)cc(O)c3C[C@H]2O)cc2c([C@H]3Oc4cc(O)cc(O)c4C[C@H]3O)cc(O)c(O)c12 [Free theaflavin]	57	98
Oc1cc(O)c2c(c1)O[C@H](c1ccc(O)c(O)c1)[C@@H](O)C2 [(+)-Catechin]	22	62
(-)-Epicatechin gallate	35	83
O=C(O[C@@H]1Cc2c(O)cc(O)cc2O[C@@H]1c1cc(O)c(O)c2c(=O)c(O)cc([C@H]3Oc4cc(O)cc(O)c4C[C@H]3O)cc12)c1cc(O)c(O)c(O)c1 [Theaflavin monogallate B]	47	98
O=C(O[C@@H]1Cc2c(O)cc(O)cc2O[C@@H]1c1cc(O)c(=O)c2c(O)c(O)cc([C@H]3Oc4cc(O)cc(O)c4C[C@H]3OC(=O)c3cc(O)c(O)c(O)c3)c2c1)c1cc(O)c(O)c(O)c1 [Theaflavin digallate]	56	98
O=C(O[C@@H]1Cc2c(O)cc(O)cc2O[C@H]1c1cc(O)c(O)c(O)c1)c1cc(O)c(O)c(O)c1 [(-)-Gallocatechin gallate]	47	95
O=C(O[C@@H]1Cc2c(O)cc(O)cc2O[C@@H]1c1cc(=O)c(O)c2c(O)c(O)cc([C@H]3Oc4cc(O)cc(O)c4C[C@H]3O)c2c1)c1cc(O)c(O)c(O)c1 [Theaflavin monogallate A]	64	97
(-)-Catechin	15	45
Oc1cc(O)c2c(c1)O[C@@H](c1ccc(O)c(O)c1)[C@@H](O)C2 [(+)-Epicatechin]	12	42

From patent EP0415126B1, “Anti-dental plaque agents” (MITSUI NORIN CO., LTD., priority 1989, dated 1991)
